Consider one compound from paper PMC9227536, “Prediction of Pharmacokinetics of IDP-73152 in Humans Using Physiologically-Based Pharmacokinetics” (Pharmaceutics, 2022).

Each structure is given as a SMILES string. Like-named read-outs stand apart in the source and are kept apart here.

Series [1] is described as follows: PK study in rats (intravenous and oral). To be noted: for Vd / clearance: iv, 10 mg/kg; for Vd: read-out: Vss; for clearance: read-out: CLp (converted); for Tmax: 20 mg/kg. Type of series: in vivo, Male Sprague Dawley rats. On the procedure: The in vivo experimental protocol was approved by the Institutional Animal Care and Use Committee of Research Laboratory at Ildong pharmaceutical Co., Ltd. (Ref. No.: IDL-PDF-001 and 09005-11004). Animals were acclimatized to the laboratory conditions for at least 1 week before the experiments and were kept in the standardized conditions (20–25 °C, 55 ± 5% humidity, and a 12 h light/dark cycle). The animals fasted overnight prior to drug administration, and food was resupplied 4 h post-dose. Male Sprague Dawley rats (Orient Bio Inc., Seongnam, Korea), weighing 194.7 g to 205.4 g, were used in this study. IDP-73152 was administered to rats at a single dose of 2.5, 5, or 10 mg/kg via tail vein injection (the injection volume fixed at 2 mL/kg in saline). […] Blood samples (100 μL) were collected from the jugular vein at 0.167, 0.33, 0.5, 1, 2, 4, and 8 h after the administration. Plasma was separated/collected by centrifugation of the blood samples for 5 min at 10,000× g/4 °C and stored at −80 °C until analysis. When necessary, the biliary and renal excretion of IDP-73152 were studied in bile duct-cannulated rats after the intravenous injection (5 mg/kg) to investigate its route(s) of excretion in rats. Bile and urine samples were collected up to 8 h (i.e., approximately 5 times of the terminal phase half-life) after the administration and the samples were stored at −80 °C until the analysis. The cumulative excretion of the bile and the urine to infinite time was determined by assuming that the excretion was practically completed by the last collection time. When necessary for a model independent PK analysis, a standard moment analysis was carried out with WinNonlin software using either representative (for the study with mice) or individual (for the study with rats, dogs, and humans) concentration–time profile(s). For the calculation of PBPK models, Berkeley Madonna 8.3.18 (Albany, CA, USA) was used with the fourth-order Runge–Kutta method for numerical integration.

Series [2] can be described thus: Biliary and renal excretion in bile duct-cannulated rats. To be noted: intravenous 5 mg/kg, up to 8 h. Type of series: in vivo. On the procedure: Male Sprague Dawley rats (Orient Bio Inc., Seongnam, Korea), weighing 194.7 g to 205.4 g, were used in this study. IDP-73152 was administered to rats at a single dose of 2.5, 5, or 10 mg/kg via tail vein injection (the injection volume fixed at 2 mL/kg in saline). […] Blood samples (100 μL) were collected from the jugular vein at 0.167, 0.33, 0.5, 1, 2, 4, and 8 h after the administration. Plasma was separated/collected by centrifugation of the blood samples for 5 min at 10,000× g/4 °C and stored at −80 °C until analysis. When necessary, the biliary and renal excretion of IDP-73152 were studied in bile duct-cannulated rats after the intravenous injection (5 mg/kg) to investigate its route(s) of excretion in rats. Bile and urine samples were collected up to 8 h (i.e., approximately 5 times of the terminal phase half-life) after the administration and the samples were stored at −80 °C until the analysis. The cumulative excretion of the bile and the urine to infinite time was determined by assuming that the excretion was practically completed by the last collection time.

[3] abbreviates: male, Sprague Dawley, rat, plasma, intravenous, across doses of 2.5, 5, and 10 mg/kg.

The Cmax is the peak of the concentration-time curve. One may read the bioavailability as dose-corrected exposure relative to a reference, in per cent. By Tmax is commonly meant the time from dosing to the highest level. As for `CC(C)(C)[C@H](NC(=O)[C@H](CC1CCCC1)CN(O)C=O)C(=O)N1CCC(NCc2cc(F)c(F)cc2F)CC1` [IDP-73152], the AUC(0-inf) in series [1] (male, Sprague Dawley, rat, plasma, intravenous 2.5 mg/kg, read-out: Observed AUCinf) was 1320 ± 130 ng·h/mL; in series [1] (male, Sprague Dawley, rat, plasma, intravenous 5 mg/kg, read-out: Observed AUCinf) it was 3270 ± 1820 ng·h/mL; in series [1] (male, Sprague Dawley, rat, plasma, intravenous 10 mg/kg, read-out: AUCinf), 5030 ± 380 ng·h/mL; in series [1] (male, Sprague Dawley, rat, plasma, oral 20 mg/kg, read-out: AUCinf), 5570 ± 1590 ng·h/mL. The half-life in series [1] (male, Sprague Dawley, rat, plasma, intravenous 10 mg/kg, read-out: t1/2 (converted)) was 1.43 ± 0.11 h; in series [1] (male, Sprague Dawley, rat, plasma, oral 20 mg/kg, read-out: t1/2 (terminal phase half-life) (converted)), 2.97 ± 1.4 h. For the same compound, the Vd in series [1] (male, Sprague Dawley, rat, plasma, intravenous 10 mg/kg, moment analysis) was 2.54 ± 0.26 L/kg; in series [1] (setting [3]) it was 2.45 to 2.78 L/kg. The clearance in series [1] (male, Sprague Dawley, rat, plasma, intravenous 10 mg/kg) was around 33.3 mL/min/kg; in series [1] (setting [3]), 30.8 to 33.3 mL/min/kg. Also, in series [1] (male, Sprague Dawley, rat, plasma, oral 20 mg/kg), the highest level (Cmax) was 1650 ± 440 ng/mL. Also, the bioavailability in series [1] (male, Sprague Dawley, rat, plasma, oral 20 mg/kg vs intravenous 10 mg/kg, read-out: F (bioavailability)) was 55.3%. In addition, the time of peak concentration (Tmax) in series [1] (male, Sprague Dawley, rat, plasma, po, oral 20 mg/kg, read-out: Tmax) stood at 0.667 h; in series [1] (oral 20 mg/kg), 0.638 ± 0.29 h. In series [2], the “biliary recovery of intact drug” value is 0.512 ± 0.154 % of the dose. Further, the “urinary recovery of intact drug” value in series [2] is 1.21 ± 0.48 % of the dose.
